According to patent US8372808B2, “Suppression of glial fibrillary acidic protein” (Wisconsin Alumni Research Foundation, priority 2008, dated 2013):

Key:
GFAP protein = assay: sandwich ELISA for GFAP protein in 172.9 cells, quaternary screen; assay type: cell-based, mouse; details: 10 days of exposure, 0-20 μM
Procedure: Compounds were tested at eight different concentrations ranging from 0-20 μM. In addition, GFAP protein levels were measured using a sandwich ELISA, which has greater sensitivity and is more accurate than the cell-based ELISA used in the primary screens.
The extracts were harvested from each well and the total GFAP content of each well was measured by a sandwich ELISA as described below. Briefly, separate microtiter plates were coated with SMI-26 anti-GFAP mouse monoclonal antibody cocktail (1:1000, Covance, diluted in PBS) overnight at 4° C., rinsed 3 times in PBS, and then blocked with Blotto (5% nonfat milk/PBS) for 2 h at RT. Samples from the astrocyte cell lysate (20 μl per well) were loaded onto the plates and brought up to 100 μl with 0.5% Triton X-100/PBS (a buffer used for subsequent antibody incubations and rinses), and incubated with a rabbit polyclonal anti-GFAP antibody (1:5000, DAKO) overnight at 4° C. The plates were rinsed three times and then incubated with HRP-conjugated goat anti-rabbit IgG (1:30,000, Sigma) for 2 h at RT. After three final rinses, peroxidase activity was detected using the Super Signal Femto maximum Sensitivity Substrate (Pierce) with a GloRunner microplate luminometer (Turner Biosystems). The GFAP content in the samples was determined from a standard curve generated using serial dilutions of purified GFAP (Research Diagnostics).

GAPDH promoter = assay: housekeeping GAPDH promoter activity in brain of Tg172.9 mice; assay type: in vivo, mouse; details: 40 mg/kg IP every other day for 3 weeks
Procedure: The dual transgenic reporter mice (FVB-Tg(GFAP-luc,GAPDH-luc)172.9Mes/J mice (JR#9638)) were developed as follows. The two transgenes were co-injected at equimolar ratios into the pronuclei of fertilized eggs on either FVB/N or FB6F1 hybrid backgrounds, using a combined concentration of 3 ng/μL. Genotyping was performed by PCR on genomic DNA isolated from tail biopsies at weaning, using the following conditions: one cycle at 95° C. 3 min, 32 cycles of 95° C. 40 s, 58° C. 30 s, 72° C. 1 min and a final extension step at 72° C. for 5 min. The primers used for detection of the GFAP-fLuc transgene were 5′-[…]-3′ (forward) and 5′-[…]-3′ (reverse), and for detection of the GAPDH-RLuc transgene were 5″-[…]-3′ (forward) and 5′-[…]-3′ (reverse). The predicted sizes for the PCR fragments are 403 bp for the GFAP-fLuc transgene, and 551 by for the GAPDH-RLuc transgene. Nine founder mice were identified that contained both transgenes, and were mated to FVB/N mice to establish lines. (The Tg172-9 line of mice has been donated to the Jackson Laboratory ([…]) for unrestricted distribution (stock #JR9638). The GAPDH (glyceraldehyde 3-phosphate dehydrogenase) promoter was used to monitor transcription of a housekeeping gene for signal normalization.

172.9 cells = assay: cell viability (CellTiter-Glo) / MTDcc in 172.9 cells
Procedure: Criterion for acceptable viability was >70% survival.
Cell viability was determined as follows. After exposure to each compound (duplicate wells per compound), 50 μl of CellTitier-Glo Luminescent Cell Viability Assay reagent (G7571, Promega) was added to the 100 μl of media present in each well, and the luminescent signal (reflecting intracellular ATP level) was detected with either a Victor 3-V plate reader (Perkin Elmer) or GloRunner Microplate Luminometer (Turner Biosystems). Cell viability was expressed as a percent of non-treated control cells.
A dose-response curve was created for each compound (0.1, 0.5, 1, 5, 10, 15, 20 μM) using 48 hr exposures. The MTDcc (“maximum tolerated dose—cell culture”) indicates the highest concentration that retained at least 70% cell viability. Each compound and concentration was analyzed in quadruplicate wells. EGCDG: epigallocatechin 3,5-digallate; NPPB: 5-nitro-2-phenylproplyaminobenzoic acid. As used herein, MTDcc refers to the MTD as determined by this assay under the above conditions.

## CN(C)CCCN1c2ccccc2CCc2ccc(Cl)cc21 [clomipramine]
GFAP protein
  reductions in GFAP protein levels: consistent reductions
GAPDH promoter
  change in activity from the housekeeping GAPDH promoter: no significant change
172.9 cells; quaternary screen, 10 days of exposure
  cell viability: acceptable cell viability
172.9 cells; tertiary screen, 48 hr exposure, 0.1-20 μM, highest concentration that retained at least 70% cell viability
  MTDcc: 12.5 µM
